In ChEMBL document CHEMBL5331051, “Cationic, amphipathic small molecules based on a triazine-piperazine-triazine scaffold as a new class of antimicrobial agents” (Eur J Med Chem, 2022):
≈ marks a conversion by molar mass, not a printed value. Calls of active or inactive are those of the source. The rule behind the calls is not given here.

Experiments:
Staphylococcus aureus [1] = test: Antibacterial activity against methicillin-resistant Staphylococcus aureus CCARM 3095 strain assessed as bacterial growth inhibition measured at 18 to 24 hrs by microdilution assay; type: functional; details: time 18-24 hrs
Staphylococcus aureus [2] = test: Additive antibacterial activity against methicillin-resistant Staphylococcus aureus CCARM 3089 strain assessed as bacterial growth inhibition in presence of chloramphenicol by checkerboard assay; type: functional
Staphylococcus aureus [3] = test: Synergistic antibacterial activity against methicillin-resistant Staphylococcus aureus CCARM 3089 strain assessed as oxacillin MIC by checkerboard assay; type: functional
Escherichia coli [4] = test: Antibacterial activity against Escherichia coli KCTC 1682 strain assessed as bacterial growth inhibition measured at 18 to 24 hrs in presence of 6 uM NH4Cl by microdilution assay; type: functional; details: time 18-24 hrs
Escherichia coli [5] = test: Antibacterial activity against Escherichia coli KCTC 1682 strain assessed as bacterial growth inhibition measured at 18 to 24 hrs by microdilution assay; type: functional; details: time 18-24 hrs
Staphylococcus aureus [6] = test: Antibacterial activity against Staphylococcus aureus KCTC 1621 strain assessed as bacterial growth inhibition measured at 18 to 24 hrs in presence of 20% human serum by microdilution assay; type: functional; details: time 18-24 hrs
Pseudomonas aeruginosa [7] = test: Synergistic antibacterial activity against multidrug-resistant Pseudomonas aeruginosa CCARM 2095 strain assessed as bacterial growth inhibition in presence of chloramphenicol by checkerboard assay; type: functional
Escherichia coli [8] = test: Antibacterial activity against Escherichia coli KCTC 1682 strain assessed as bacterial growth inhibition measured at 18 to 24 hrs in presence of 2.5 mM CaCl2 by microdilution assay; type: functional; details: time 18-24 hrs
Escherichia coli [9] = test: Antibacterial activity against Escherichia coli KCTC 1682 strain assessed as bacterial growth inhibition measured at 18 to 24 hrs in presence of 1 mM MgCl2 by microdilution assay; type: functional; details: time 18-24 hrs
Lipopolysaccharide (LPS) = test: Binding affinity to Escherichia coli O111:B4 lipopolysaccharide assessed as suppression of FTIC labeled LPS binding to mouse RAW264.7 cells at 20 ug/ml pretreated with LPS followed by compound addition by flow cytometer assay (reference value: 67.4%); type: cell-based; details: dose 20.0 µg/ml
Pseudomonas aeruginosa [10] = test: Synergistic antibacterial activity against multidrug-resistant Pseudomonas aeruginosa CCARM 2095 strain assessed as bacterial growth inhibition in presence of ciprofloxacin by checkerboard assay; type: functional
Cell membrane [11] = test: Induction of outer membrane permeabilization in Escherichia coli KCTC 1682 assessed as increase in fluorescence intensity at 2 to 8 ug/ml by NPN staining based analysis; details: dose 2-8 µg/ml
Staphylococcus aureus [12] = test: Synergistic antibacterial activity against multidrug-resistant Staphylococcus aureus CCARM 3089 strain assessed as oxacillin fractional inhibitory concentration by checkerboard assay; type: functional
Staphylococcus aureus [13] = test: Antibacterial activity against methicillin-resistant Staphylococcus aureus CCARM 3089 strain assessed as bacterial growth inhibition measured at 18 to 24 hrs by microdilution assay; type: functional; details: time 18-24 hrs
Pseudomonas aeruginosa [14] = test: Synergistic antibacterial activity against multidrug-resistant Pseudomonas aeruginosa CCARM 2095 strain assessed as chloramphenicol MIC by checkerboard assay; type: functional
Staphylococcus aureus [15] = test: Antibacterial activity against Staphylococcus aureus KCTC 1621 strain assessed as bacterial growth inhibition measured at 18 to 24 hrs in presence of 1 mM MgCl2 by microdilution assay; type: functional; details: time 18-24 hrs
Pseudomonas aeruginosa [16] = test: Antibacterial activity against Pseudomonas aeruginosa KCTC 1637 strain assessed as bacterial growth inhibition measured at 18 to 24 hrs by microdilution assay; type: functional; details: time 18-24 hrs
Staphylococcus aureus [17] = test: Synergistic antibacterial activity against methicillin-resistant Staphylococcus aureus CCARM 3089 strain assessed as fractional inhibitory concentration in presence of ciprofloxacin by checkerboard assay; type: functional
Escherichia coli [18] = test: Antibacterial activity against Escherichia coli KCTC 1682 strain assessed as bacterial growth inhibition measured at 18 to 24 hrs in presence of 150 mM NaCl by microdilution assay; type: functional; details: time 18-24 hrs
Staphylococcus aureus [19] = test: Antibacterial activity against methicillin-resistant Staphylococcus aureus CCARM 3089 strain assessed as bacterial growth inhibition by checkerboard assay; type: functional
RAW264.7 = test: Antiinflammatory activity in LPS-induced mouse RAW264.7 cells assessed as reduction in TNF alpha mRNA expression level at 20 ug/ml measured after 18 hrs by RT-PCR assay relative to control; type: functional, cell-based; details: dose 20.0 µg/ml
Staphylococcus aureus [20] = test: Synergistic antibacterial activity against methicillin-resistant Staphylococcus aureus CCARM 3089 strain assessed as fractional inhibitory concentration in presence of oxacillin by checkerboard assay; type: functional
Escherichia coli [21] = test: Antibacterial activity against Escherichia coli KCTC 1682 strain assessed as bacterial growth inhibition measured after 6 hrs in presence of pepsin by radial diffusion assay; type: functional, organism-based
Staphylococcus aureus [22] = test: Synergistic antibacterial activity against multidrug-resistant Staphylococcus aureus CCARM 3089 strain assessed as fractional inhibitory concentration index in presence of ciprofloxacin by checkerboard assay; type: functional
Pseudomonas aeruginosa [23] = test: Synergistic antibacterial activity against multidrug-resistant Pseudomonas aeruginosa CCARM 2095 strain assessed as fractional inhibitory concentration index in presence of chloramphenicol by checkerboard assay; type: functional
Pseudomonas aeruginosa [24] = test: Synergistic antibacterial activity against multidrug-resistant Pseudomonas aeruginosa CCARM 2095 strain assessed as ciprofloxacin MIC by checkerboard assay; type: functional
Staphylococcus aureus [25] = test: Additive antibacterial activity against multidrug-resistant Staphylococcus aureus CCARM 3089 strain assessed as oxacillin fractional inhibitory concentration by checkerboard assay; type: functional
Staphylococcus aureus [26] = test: Synergistic antibacterial activity against methicillin-resistant Staphylococcus aureus CCARM 3089 strain assessed as ciprofloxacin MIC by checkerboard assay; type: functional
Escherichia coli [27] = test: Antibacterial activity against Escherichia coli KCTC 1682 strain assessed as bacterial growth inhibition measured after 6 hrs in presence of chymotrypsin by radial diffusion assay; type: functional, organism-based
Pseudomonas aeruginosa [28] = test: Synergistic antibacterial activity against multidrug-resistant Pseudomonas aeruginosa CCARM 2095 strain assessed as chloramphenicol fractional inhibitory concentration in presence of chloramphenicol by checkerboard assay; type: functional
Pseudomonas aeruginosa [29] = test: Antibacterial activity against multidrug-resistant Pseudomonas aeruginosa CCARM 2109 strain assessed as bacterial growth inhibition measured at 18 to 24 hrs by microdilution assay; type: functional; details: time 18-24 hrs
Pseudomonas aeruginosa [30] = test: Synergistic antibacterial activity against multidrug-resistant Pseudomonas aeruginosa CCARM 2095 strain assessed as chloramphenicol fractional inhibitory concentration by checkerboard assay; type: functional
Cell membrane [31] = test: Induction of cell membrane damage in Escherichia coli KCTC 1682 assessed as increase in fluorescent intensity at 2 times MIC incubated for 30 mins by PI staining based flow cytometry assay (reference value: 9.79 %); type: subcellular
Pseudomonas aeruginosa [32] = test: Synergistic antibacterial activity against multidrug-resistant Pseudomonas aeruginosa CCARM 2095 strain assessed as bacterial growth inhibition by checkerboard assay; type: functional
Staphylococcus aureus [33] = test: Antibacterial activity against Staphylococcus aureus KCTC 1621 strain assessed as bacterial growth inhibition measured at 18 to 24 hrs in presence of 150 mM NaCl by microdilution assay; type: functional; details: time 18-24 hrs
Pseudomonas aeruginosa [34] = test: Synergistic antibacterial activity against multidrug-resistant Pseudomonas aeruginosa CCARM 2095 strain assessed as fractional inhibitory concentration index in presence of oxacillin by checkerboard assay; type: functional
Pseudomonas aeruginosa [35] = test: Antibiofilm activity against multidrug-resistant Pseudomonas aeruginosa assessed as inhibition of biofilm formation; type: functional

| SMILES | MIC (Staphylococcus aureus [1]) [µM] | MIC (Staphylococcus aureus [3]) [µg/mL] | MIC (Escherichia coli [4]) [µM] | MIC (Escherichia coli [5]) [µM] | MIC (Staphylococcus aureus [6]) [µM] | MIC (Pseudomonas aeruginosa [7]) [µg/mL] | MIC (Escherichia coli [8]) [µM] | MIC (Escherichia coli [9]) [µM] | Flu intensity (Lipopolysaccharide (LPS)) [%] | MIC (Pseudomonas aeruginosa [10]) [µg/mL] | Activity (Cell membrane [11]) | FIC (Staphylococcus aureus [12]) | MIC (Staphylococcus aureus [13]) [µM] | MIC (Pseudomonas aeruginosa [14]) [µg/mL] | MIC (Staphylococcus aureus [15]) [µM] | MIC (Pseudomonas aeruginosa [16]) [µM] | FIC (Staphylococcus aureus [17]) | MIC (Escherichia coli [18]) [µM] | MIC (Staphylococcus aureus [19]) [µg/mL] | Activity (RAW264.7) | further results |
| --- | --- | --- | --- | --- | --- | --- | --- | --- | --- | --- | --- | --- | --- | --- | --- | --- | --- | --- | --- | --- | --- |
| NCCCCNc1nc(NCCCCN)nc(N2CC(Cc3ccccc3)N(c3nc(NCCCCN)nc(NCCCCN)n3)CC2Cc2ccccc2)n1 (stereo not given) | 10.4 (≈ 8 µg/mL) | 256 | 10.4 | 10.4 (≈ 8 µg/mL) | 10.4 | 8 | 10.4 | 10.4 | 19.5 | 8 | inactive | 0.25 | 5.2 (≈ 4 µg/mL) | 128 | 5.2 | 5.2 (≈ 4 µg/mL) | 0.25 | 10.4 | 4 | Active | MIC (Staphylococcus aureus [2]): 2 µg/mL; FIC (Staphylococcus aureus [20]): 0.25; Activity (Escherichia coli [21]): Active; fractional inhibitory concentration index (FICI) (Staphylococcus aureus [22]): 0.375; fractional inhibitory concentration index (FICI) (Pseudomonas aeruginosa [23]): 0.375; MIC (Pseudomonas aeruginosa [24]): 128 µg/mL; FIC (Staphylococcus aureus [25]): 0.25; MIC (Staphylococcus aureus [26]): 64 µg/mL; Activity (Escherichia coli [27]): Active; FIC (Pseudomonas aeruginosa [28]): 0.25; MIC (Pseudomonas aeruginosa [29]): 10.4 µM (≈ 8 µg/mL); FIC (Pseudomonas aeruginosa [30]): 0.125; Flu intensity (Cell membrane [31]): 6.03%; MIC (Pseudomonas aeruginosa [32]): 32 µg/mL; MIC (Staphylococcus aureus [33]): 5.2 µM; fractional inhibitory concentration index (FICI) (Pseudomonas aeruginosa [34]): 0.5 |
| NCCN(CCN)c1nc(NCc2ccccc2)nc(N2CC(Cc3ccccc3)N(c3nc(NCc4ccccc4)nc(N(CCN)CCN)n3)CC2Cc2ccccc2)n1 (stereo not given) | 5.4 (≈ 4.52 µg/mL) | 256 | 5.4 | 5.4 (≈ 4.52 µg/mL) | 10.8 | 4 | 5.4 | 10.8 | 8 | 2 | inactive | 0.25 | 5.4 (≈ 4.52 µg/mL) | 256 | 5.4 | 5.4 (≈ 4.52 µg/mL) | 0.25 | 5.4 | 4 | Active | MBEC50 (Pseudomonas aeruginosa [35]): 10.4 µM; MBEC90 (Pseudomonas aeruginosa [35]): 10.4 µM; MBIC (Pseudomonas aeruginosa [35]): 5.2 µM; MBIC50 (Pseudomonas aeruginosa [35]): 1.3 µM; FIC (Staphylococcus aureus [20]): 0.25; Activity (Escherichia coli [21]): Active; fractional inhibitory concentration index (FICI) (Staphylococcus aureus [22]): 0.375; fractional inhibitory concentration index (FICI) (Pseudomonas aeruginosa [23]): 0.5; MIC (Pseudomonas aeruginosa [24]): 256 µg/mL; FIC (Staphylococcus aureus [25]): 0.25; MIC (Staphylococcus aureus [26]): 64 µg/mL; Activity (Escherichia coli [27]): Active; FIC (Pseudomonas aeruginosa [28]): 0.25; MIC (Pseudomonas aeruginosa [29]): 10.7 µM (≈ 8.96 µg/mL); FIC (Pseudomonas aeruginosa [30]): 0.25; Flu intensity (Cell membrane [31]): 10.5%; MIC (Pseudomonas aeruginosa [32]): 16 µg/mL; MIC (Staphylococcus aureus [33]): 5.4 µM; fractional inhibitory concentration index (FICI) (Pseudomonas aeruginosa [34]): 0.375 |
